Experimental data from patent publication US8541588B2, “Sulfonamide derivatives” (Pfizer Limited, priority 2009, dated 2013).
pIC50: −log10 of the molar value.

The compounds below were run against T1, Nav1.7 (or SCN9A) channel; HEK cells stably transfected with hSCN9A (Homo sapiens, UniProt Q15858) (assay: Nav1.7 block, PatchXpress 7000 automated whole-cell voltage clamp, estimated IC50 (EIC50)). Conditions: estimated IC50; hSCN9A HEK cells, PatchXpress platform; Examples 815-1040.
T1 construct: expressed in transfected cells
T1 sequence (Q15858 whole entry): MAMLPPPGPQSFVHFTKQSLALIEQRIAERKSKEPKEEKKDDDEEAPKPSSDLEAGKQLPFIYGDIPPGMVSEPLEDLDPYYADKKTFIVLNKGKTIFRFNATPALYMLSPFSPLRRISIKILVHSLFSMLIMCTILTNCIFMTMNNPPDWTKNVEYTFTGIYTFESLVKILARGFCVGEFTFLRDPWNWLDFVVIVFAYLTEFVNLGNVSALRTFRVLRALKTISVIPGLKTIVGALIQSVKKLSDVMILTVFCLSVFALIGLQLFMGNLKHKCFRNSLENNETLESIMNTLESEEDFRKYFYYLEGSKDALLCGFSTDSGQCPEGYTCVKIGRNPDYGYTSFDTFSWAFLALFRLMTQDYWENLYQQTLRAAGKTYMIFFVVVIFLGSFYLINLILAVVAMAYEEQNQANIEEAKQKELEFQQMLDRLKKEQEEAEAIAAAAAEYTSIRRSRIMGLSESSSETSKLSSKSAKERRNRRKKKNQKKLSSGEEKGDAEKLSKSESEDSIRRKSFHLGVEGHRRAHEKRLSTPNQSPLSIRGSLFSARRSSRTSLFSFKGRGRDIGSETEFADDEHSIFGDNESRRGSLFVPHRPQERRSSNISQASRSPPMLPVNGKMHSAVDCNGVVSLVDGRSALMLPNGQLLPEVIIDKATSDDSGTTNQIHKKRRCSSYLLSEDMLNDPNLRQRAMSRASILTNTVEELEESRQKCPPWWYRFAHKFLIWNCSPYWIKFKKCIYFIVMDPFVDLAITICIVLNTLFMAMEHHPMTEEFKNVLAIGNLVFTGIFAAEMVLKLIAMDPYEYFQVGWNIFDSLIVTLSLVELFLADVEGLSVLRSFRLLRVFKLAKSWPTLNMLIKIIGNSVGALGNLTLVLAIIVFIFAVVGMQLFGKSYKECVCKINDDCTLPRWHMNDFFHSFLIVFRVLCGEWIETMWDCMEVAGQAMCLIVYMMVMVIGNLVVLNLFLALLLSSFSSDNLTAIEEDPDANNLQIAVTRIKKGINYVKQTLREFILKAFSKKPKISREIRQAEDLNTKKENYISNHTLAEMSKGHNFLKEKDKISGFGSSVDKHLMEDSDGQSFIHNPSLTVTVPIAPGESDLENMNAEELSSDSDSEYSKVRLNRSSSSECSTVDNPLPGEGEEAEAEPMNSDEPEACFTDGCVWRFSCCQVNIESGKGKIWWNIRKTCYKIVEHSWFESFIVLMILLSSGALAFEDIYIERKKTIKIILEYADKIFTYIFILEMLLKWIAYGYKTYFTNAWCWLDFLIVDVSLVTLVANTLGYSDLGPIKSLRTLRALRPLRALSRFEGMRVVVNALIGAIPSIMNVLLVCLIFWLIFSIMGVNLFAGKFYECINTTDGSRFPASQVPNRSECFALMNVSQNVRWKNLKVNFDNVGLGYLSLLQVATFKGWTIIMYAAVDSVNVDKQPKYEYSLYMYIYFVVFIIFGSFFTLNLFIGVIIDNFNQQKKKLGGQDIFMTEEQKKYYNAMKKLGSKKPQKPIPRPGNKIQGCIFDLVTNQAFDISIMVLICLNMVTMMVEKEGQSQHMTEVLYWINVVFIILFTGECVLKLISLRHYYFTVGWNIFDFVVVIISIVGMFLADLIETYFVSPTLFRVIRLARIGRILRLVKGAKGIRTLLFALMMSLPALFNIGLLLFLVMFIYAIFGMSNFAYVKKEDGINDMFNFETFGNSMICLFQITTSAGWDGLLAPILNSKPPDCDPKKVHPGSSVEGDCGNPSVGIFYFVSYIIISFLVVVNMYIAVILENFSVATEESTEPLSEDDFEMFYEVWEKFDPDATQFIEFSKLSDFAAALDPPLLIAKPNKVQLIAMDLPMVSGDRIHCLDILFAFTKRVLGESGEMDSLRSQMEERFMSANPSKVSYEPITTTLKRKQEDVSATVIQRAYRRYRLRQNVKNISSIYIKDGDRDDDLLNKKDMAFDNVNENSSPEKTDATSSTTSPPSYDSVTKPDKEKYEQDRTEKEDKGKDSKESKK
Assay type: cell-based

Structure (SMILES)	pIC50	IC50 [nM]
O=S(=O)(Nc1ncccn1)c1cc(Cl)c(Oc2ccc(OC(F)(F)F)cc2-c2ccnnc2)cc1F [Example 945, 5-chloro-2-fluoro-4-[2-pyridazin-4-yl-4-(trifluoromethoxy)phenoxy]-N-pyrimidin-2-ylbenzenesulfonamide]	7.00	
N#Cc1cc(S(=O)(=O)Nc2nncs2)ccc1Oc1ccc(C(F)(F)F)cc1-c1ccnnc1 [Example 946, 3-cyano-4-[2-pyridazin-4-yl-4-(trifluoromethyl)phenoxy]-N-1,3,4-thiadiazol-2-ylbenzenesulfonamide]	6.64	
O=S(=O)(Nc1nncs1)c1cc(Cl)c(Oc2cc(C(F)(F)F)c(F)cc2-c2ccnnc2)cc1F [Example 947, 5-chloro-2-fluoro-4-[4-fluoro-2-pyridazin-4-yl-5-(trifluoromethyl)phenoxy]-N-1,3,4-thiadiazol-2-ylbenzenesulfonamide]	7.64	
N#Cc1cc(S(=O)(=O)Nc2ncns2)ccc1Oc1cc(C(F)(F)F)c(F)cc1-c1ccnnc1 [Example 948, 3-cyano-4-[4-fluoro-2-pyridazin-4-yl-5-(trifluoromethyl)phenoxy]-N-1,2,4-thiadiazol-5-ylbenzenesulfonamide]	7.96	
Nc1cc(-c2cc(F)ccc2Oc2cc(F)c(S(=O)(=O)Nc3ncccn3)cc2Cl)ccn1 [Example 949, 4-[2-(2-aminopyridin-4-yl)-4-fluorophenoxy]-5-chloro-2-fluoro-N-pyrimidin-2-ylbenzenesulfonamide]	7.06	
Cn1nccc1-c1cc(Cl)ccc1Oc1ccc(S(=O)(=O)Nc2ncns2)cn1 [Example 950, 6-[4-chloro-2-(1-methyl-1H-pyrazol-5-yl)phenoxy]-N-1,2,4-thiadiazol-5-ylpyridine-3-sulfonamide]		2700
N#Cc1ccc(-c2ccnnc2)c(Oc2cc(F)c(S(=O)(=O)Nc3ncns3)cc2Cl)c1 [Example 951, 5-chloro-4-(5-cyano-2-pyridazin-4-ylphenoxy)-2-fluoro-N-1,2,4-thiadiazol-5-ylbenzenesulfonamide]	7.40	
N#Cc1cc(S(=O)(=O)Nc2cscn2)ccc1Oc1ccc(C(F)(F)F)cc1-c1ccnnc1 [Example 953, 3-cyano-4-[2-pyridazin-4-yl-4-(trifluoromethyl)phenoxy]-N-1,3-thiazol-4-ylbenzenesulfonamide]	6.96	
O=S(=O)(Nc1cscn1)c1cc(F)c(Oc2ccc(C(F)(F)F)cc2-c2ccnnc2)cc1F [Example 954, 2,5-difluoro-4-[2-pyridazin-4-yl-4-(trifluoromethyl)phenoxy]-N-1,3-thiazol-4-ylbenzenesulfonamide]	6.62	
Cn1nccc1-c1cc(Cl)ccc1Oc1ccc(S(=O)(=O)Nc2ncccn2)cc1Cl [Example 955, 3-chloro-4-[4-chloro-2-(1-methyl-1H-pyrazol-5-yl)phenoxy]-N-pyrimidin-2-ylbenzenesulfonamide]	7.12	
O=S(=O)(Nc1nncs1)c1cc(Cl)c(Oc2ccc(Cl)c(F)c2-c2ccnnc2)cc1F [Example 956, 5-chloro-4-(4-chloro-3-fluoro-2-pyridazin-4-ylphenoxy)-2-fluoro-N-1,3,4-thiadiazol-2-ylbenzenesulfonamide]	6.89	
N#Cc1cc(S(=O)(=O)Nc2ncns2)ccc1Oc1cc(OC(F)(F)F)ccc1-c1ccnnc1 [Example 957, 3-cyano-4-[2-pyridazin-4-yl-5-(trifluoromethoxy)phenoxy]-N-1,2,4-thiadiazol-5-ylbenzenesulfonamide]	7.66	
N#Cc1cc(S(=O)(=O)Nc2ncns2)ccc1Oc1cc(F)c(OC(F)(F)F)cc1-c1ccnnc1 [Example 958, 3-cyano-4-[5-fluoro-2-pyridazin-4-yl-4-(trifluoromethoxy)phenoxy]-N-1,2,4-thiadiazol-5-ylbenzenesulfonamide]	8.23	
N#Cc1cc(S(=O)(=O)Nc2ncns2)ccc1Oc1ccc(C(F)(F)F)cc1-c1ccncc1 [Example 960, 3-cyano-4-[2-pyridin-4-yl-4-(trifluoromethyl)phenoxy]-N-1,2,4-thiadiazol-5-ylbenzenesulfonamide]	8.40	
Cc1nocc1-c1cc(Cl)ccc1Oc1ccc(S(=O)(=O)Nc2ncns2)cc1C#N [Example 961, 4-[4-chloro-2-(3-methylisoxazol-4-yl)phenoxy]-3-cyano-N-1,2,4-thiadiazol-5-ylbenzenesulfonamide]	8.10	
N#Cc1cc(S(=O)(=O)Nc2cscn2)ccc1Oc1ccc(OC(F)(F)F)cc1-c1ccnn1C1CNC1 [Example 962, 4-[2-(1-azetidin-3-yl-1H-pyrazol-5-yl)-4-(trifluoromethoxy)phenoxy]-3-cyano-N-1,3-thiazol-4-ylbenzenesulfonamide]	8.00	
O=S(=O)(Nc1nncs1)c1cc(Cl)c(Oc2cc(F)c(OC(F)(F)F)cc2-c2ccnnc2)cc1F [Example 963, 5-chloro-2-fluoro-4-[5-fluoro-2-pyridazin-4-yl-4-(trifluoromethoxy)phenoxy]-N-1,3,4-thiadiazol-2-ylbenzenesulfonamide]	7.82	

Structure (SMILES)	pIC50	IC50 [nM]
N#Cc1cc(S(=O)(=O)Nc2ncns2)ccc1Oc1cc(OC(F)(F)F)c(F)cc1-c1ccnnc1 [Example 964, 3-cyano-4-[4-fluoro-2-pyridazin-4-yl-5-(trifluoromethoxy)phenoxy]-N-1,2,4-thiadiazol-5-ylbenzenesulfonamide]	7.68	
O=S(=O)(Nc1nncs1)c1cc(Cl)c(Oc2cc(OC(F)(F)F)c(F)cc2-c2ccnnc2)cc1F [Example 965, 5-chloro-2-fluoro-4-[4-fluoro-2-pyridazin-4-yl-5-(trifluoromethoxy)phenoxy]-N-1,3,4-thiadiazol-2-ylbenzenesulfonamide]	7.60	
O=S(=O)(Nc1nncs1)c1cc(Cl)c(Oc2cc(OC(F)(F)F)ccc2-c2ccnnc2)cc1F [Example 966, 5-chloro-2-fluoro-4-[2-pyridazin-4-yl-5-(trifluoromethoxy)phenoxy]-N-1,3,4-thiadiazol-2-ylbenzenesulfonamide]	7.40	
N#Cc1cc(S(=O)(=O)Nc2ncns2)ccc1Oc1ccc(Cl)cc1-c1cnco1 [Example 967, 4-[4-chloro-2-(1,3-oxazol-5-yl)phenoxy]-3-cyano-N-1,2,4-thiadiazol-5-ylbenzenesulfonamide]	7.57	
CN1CC(n2nccc2-c2cc(Cl)ccc2Oc2ncc(S(=O)(=O)Nc3ncns3)cc2Cl)C1 [Example 968, 5-chloro-6-{4-chloro-2-[1-(1-methylazetidin-3-yl)-1H-pyrazol-5-yl]phenoxy}-N-1,2,4-thiadiazol-5-ylpyridine-3-sulfonamide]		2000
N#Cc1cc(S(=O)(=O)Nc2cscn2)ccc1Oc1ccc(C(F)(F)F)cc1-c1ccnn1C1CNC1 [Example 969, 4-[2-(1-azetidin-3-yl-1H-pyrazol-5-yl)-4-(trifluoromethyl)phenoxy]-3-cyano-N-1,3-thiazol-4-ylbenzenesulfonamide]	8.39	
O=S(=O)(Nc1ncns1)c1cc(F)c(Oc2ccc(Cl)cc2-c2cnco2)cc1F [Example 970, 4-[4-chloro-2-(1,3-oxazol-5-yl)phenoxy]-2,5-difluoro-N-1,2,4-thiadiazol-5-ylbenzenesulfonamide]	7.77	
N#Cc1cc(S(=O)(=O)Nc2ncns2)ccc1Oc1cc(Cl)c(Cl)cc1-c1ccnnc1 [Example 971, 3-cyano-4-(4,5-dichloro-2-pyridazin-4-ylphenoxy)-N-1,2,4-thiadiazol-5-ylbenzenesulfonamide]	8.07	
Nc1cc(-c2cc(F)ccc2Oc2cc(F)c(S(=O)(=O)Nc3ccncn3)cc2Cl)ccn1 [Example 972, 4-[2-(2-aminopyridin-4-yl)-4-fluorophenoxy]-5-chloro-2-fluoro-N-pyrimidin-4-ylbenzenesulfonamide]	7.60	
Nc1n[nH]cc1-c1cc(Cl)ccc1Oc1ccc(S(=O)(=O)Nc2ccncn2)cc1Cl [Example 973, 4-[2-(3-amino-1H-pyrazol-4-yl)-4-chlorophenoxy]-3-chloro-N-pyrimidin-4-ylbenzenesulfonamide]	7.60	
O=S(=O)(Nc1ncns1)c1cnc(Oc2ccc(C(F)(F)F)cc2-c2ccnnc2)c(Cl)c1 [Example 974, 5-chloro-6-[2-pyridazin-4-yl-4-(trifluoromethyl)phenoxy]-N-1,2,4-thiadiazol-5-ylpyridine-3-sulfonamide]		74
CCN1CC(n2nccc2-c2cc(Cl)ccc2Oc2cc(F)c(S(=O)(=O)Nc3ncns3)cc2F)C1 [Example 975, 4-{4-chloro-2-[1-(1-ethylazetidin-3-yl)-1H-pyrazol-5-yl]phenoxy}-2,5-difluoro-N-1,2,4-thiadiazol-5-ylbenzenesulfonamide]	8.82	
O=S(=O)(Nc1ncns1)c1ccc(Oc2ccc(C(F)(F)F)cc2-c2ccnnc2)c(C(F)(F)F)c1 [Example 976, 4-[2-pyridazin-4-yl-4-(trifluoromethyl)phenoxy]-N-1,2,4-thiadiazol-5-yl-3-(trifluoromethyl)benzenesulfonamide]	8.60	
Cc1cc(S(=O)(=O)Nc2ncns2)c(F)cc1Oc1ccc(C(F)(F)F)cc1-c1ccnnc1 [Example 978, 2-fluoro-5-methyl-4-[2-pyridazin-4-yl-4-(trifluoromethyl)phenoxy]-N-1,2,4-thiadiazol-5-ylbenzenesulfonamide]	8.34	
N#Cc1cc(S(=O)(=O)Nc2ncns2)ccc1Oc1ccc(C(F)(F)F)cc1-c1ccc[n+]([O-])c1 [Example 979, 3-cyano-4-[2-(1-oxidopyridin-3-yl)-4-(trifluoromethyl)phenoxy]-N-1,2,4-thiadiazol-5-ylbenzenesulfonamide]		110
Cc1nn(C(C)(C)C)cc1-c1cc(Cl)ccc1Oc1cc(F)c(S(=O)(=O)Nc2nncs2)cc1Cl [Example 982, 4-[2-(1-tert-butyl-3-methyl-1H-pyrazol-4-yl)-4-chlorophenoxy]-5-chloro-2-fluoro-N-1,3,4-thiadiazol-2-ylbenzenesulfonamide]		>300
Cc1n[nH]cc1-c1ccccc1Oc1ccc(S(=O)(=O)Nc2nccs2)cc1C(N)=O [Example 983, 2-[2-(3-methyl-1H-pyrazol-4-yl)phenoxy]-5-[(1,3-thiazol-2-ylamino)sulfonyl]benzamide]	5.57	
